Assay results taken from ChEMBL document CHEMBL1150718, “Antineoplastic agents, 122. Constituents of Combretum caffrum” (1987).
Values after ≈ are worked out from the molar mass of the structure shown. Active and inactive are the calls of the source. The rule behind the calls is not given here.

What was measured:
[1] = system: P388; experiment: Growth inhibition of mouse P388 cells; type: functional
[2] = Antimitotic activity against rat 9ASK cells assessed as reversal of astrocyte morphology at 1 to 100 ug/ml; type: functional
[3] = Cytotoxicity against rat 9ASK cells at 0.1 ug/ml; type: functional
[4] = Antimitotic activity against rat 9ASK cells assessed as reversal of astrocyte morphology at 0.1 ug/ml; type: functional
[5] = system: P388; experiment: In vivo cytotoxicity against mouse P388 cells at 5 mg/kg; type: functional, organism-based; set-up: dose 5 mg/kg

For `COc1cc2c(=O)oc3c(OC)c(O)cc4c(=O)oc(c1OC)c2c34`, which ED50 [1] is on record?
The ED50 was “inactive”.

For `COc1ccc(-c2cc(=O)c3c(O)cc(O)cc3o2)cc1`, which ED50 [1] is on record?
Its ED50 is “inactive”.

Which results are given for `COc1ccc(C[C@@H](O)c2cc(OC)c(OC)c(OC)c2)cc1O` [COMBRETASTATIN]?
Activity [2]: 71%; Activity [3]: 0%; EC50 ([1]; read-out: ED50 (the source's name)): 0.011 µg/mL (≈ 0.0329 µM); Activity [4]: 51%; Activity [5]: Active
